Results published in the CheMixHub viscosity set.

Test: xn = mol fraction of the nth substance listed

C1CCOC1 + CCCO
viscosity [mPa·s], 101 kPa
Settings	298.15 K	303 K	313 K
x1 = 0.0992	–	1.22	1.04
x1 = 0.1999	–	1.08	0.9
x1 = 0.2846	–	1	0.85
x1 = 0.39	–	0.91	0.77
x1 = 0.5	0.7603	–	–
x1 = 0.5146	–	0.8	0.69
x1 = 0.5918	–	0.73	0.65
x1 = 0.7012	–	0.64	0.57
x1 = 0.8028	–	0.57	0.51
x1 = 0.894	–	0.5	0.47
x1 = 0.9761	–	0.44	0.42

CC(=O)Oc1ccccc1C(=O)O + CCCO
viscosity [mPa·s], 101 kPa
Settings	x1 = 0.00057	x1 = 0.000763	x1 = 0.000955	x1 = 0.00115	x1 = 0.00134	x1 = 0.00153	x1 = 0.00191
293.15 K	2.257	2.26	2.261	2.262	2.265	2.266	2.27
298.15 K	2.207	2.209	2.21	2.211	2.213	2.215	2.217
303.15 K	1.718	1.719	1.719	1.721	1.722	1.723	1.726
308.15 K	1.622	1.623	1.624	1.625	1.626	1.627	1.628
310.15 K	1.458	1.459	1.459	1.46	1.46	1.461	1.461
313.15 K	1.397	1.398	1.399	1.399	1.399	1.4	1.401

CC(C)=O + CCCO
viscosity [mPa·s]
Settings	293.15 K	298.15 K	303.15 K	308.15 K	313.15 K	318.15 K	323.15 K
100 kPa, x1 = 0.0998	1.594	1.433	1.292	1.169	1.061	0.9672	0.8879
100 kPa, x1 = 0.1998	1.18	1.075	0.9822	0.8994	0.825	0.7583	0.6972
100 kPa, x1 = 0.3	0.9113	0.8407	0.7774	0.7203	0.6684	0.6206	0.576
100 kPa, x1 = 0.4001	0.735	0.6844	0.6379	0.595	0.5538	0.5147	0.4769
100 kPa, x1 = 0.4999	0.6175	0.5801	0.5456	0.513	0.4815	0.4495	0.4195
100 kPa, x1 = 0.6	0.5137	0.4875	0.4629	0.4389	0.4158	0.392	0.3661
100 kPa, x1 = 0.6998	0.4493	0.429	0.4094	0.3911	0.3733	0.3543	0.3317
100 kPa, x1 = 0.8002	0.407	0.391	0.3751	0.3599	0.3448	0.3286	0.3156
100 kPa, x1 = 0.9	0.3728	0.3531	0.34	–	0.301	0.2875	0.279
100 kPa, x1 = 0.9001	–	–	–	0.3221	–	–	–
101 kPa, x1 = 0.1032	–	1.433	–	–	–	–	–
101 kPa, x1 = 0.2056	–	0.9891	–	–	–	–	–
101 kPa, x1 = 0.3073	–	0.7819	–	–	–	–	–
101 kPa, x1 = 0.4083	–	0.6403	–	–	–	–	–
101 kPa, x1 = 0.5086	–	0.5381	–	–	–	–	–
101 kPa, x1 = 0.6082	–	0.4652	–	–	–	–	–
101 kPa, x1 = 0.7072	–	0.4139	–	–	–	–	–
101 kPa, x1 = 0.8055	–	0.3742	–	–	–	–	–
101 kPa, x1 = 0.903	–	0.3453	–	–	–	–	–

COc1ccccc1 + CCCO
viscosity [mPa·s], 101 kPa
Settings	x1 = 0.1207	x1 = 0.236	x1 = 0.3462	x1 = 0.4516	x1 = 0.5526	x1 = 0.6495	x1 = 0.7424	x1 = 0.8317	x1 = 0.9175
303 K	1.448	1.219	1.138	1.075	0.9286	0.8908	0.8219	0.8308	0.8695
313 K	1.176	1.046	0.9616	0.8924	0.7921	0.7847	0.7639	0.7523	0.7392
323 K	0.9186	0.8788	0.759	0.7338	0.6514	0.6115	0.6084	0.5967	0.598
